Assay results from patent publication US20100069345A1, “Lanthanide-porphyrin complexes as anti-tumor agents” (priority 2005, published 2010).

Legend:
[1] = system: human cervical epitheloid carcinoma cells (HeLa); experiment: MTT cell viability assay, HeLa; type: cell-based
Excerpt: (§1) Human cervical epitheloid carcinoma cells (HeLa), human hepatocellular carcinoma cells (HepG2 and Hep3B), human breast cancer cells (MCF-7), human coloadenocarcinoma cells (HCT-8), and normal human lung fibroblast cells (CCD-19Lu) were purchased from American Type Culture Collection (ATCC) Rockville, Md., USA. The human hepatocellular cancinoma cells QGY-7703, and the multi-drug resistant cell line QGY-TR50 derived from QGY-7703, were generously provided by Prof. Yong Xie (The Hong Kong University of Science and Technology, Hong Kong PRC). QGY-TR50 cells were isolated and cultured as described (J. Zhou, S. C. Cheng, D. Luo, Y. Xie Biochem. Biophys. Res. Commun. 2001, 280, 1237-1242). Human nasopharyngeal carcinoma cells (SUNE1 and its cisplatin-resistant variant—CNE2) were derived from poorly differentiated NPC in Chinese patients and were generously provided by Dr. S. W. Tsao (The University of Hong Kong, Hong Kong PRC). Cell culture flasks and 96-well microtitre plates were from Nalge Nunc Int. Culture medium, other medium constituents and phosphate buffer saline (PBS) were obtained by Gibco BRL Rockville, Md., USA. Cell Proliferation kit I (MTT) was purchased from Roche. Mannheim, Germany.

[2] = system: human nasopharyngeal carcinoma cells (SUNE1); experiment: MTT cell viability assay, SUNE1; type: cell-based
Excerpt: as §1

[3] = system: human hepatocellular carcinoma cells (Hep3B); experiment: MTT cell viability assay, Hep3B; type: cell-based; settings: 37° C., 48 h, mean ± SD
Excerpt: as §1

[4] = system: different human liver carcinoma cells; experiment: Cytotoxicity toward different human liver carcinoma cells; type: cell-based; settings: treatment for 48 h
Excerpt: as §1

[5] = Stability by UV-visible in presence of reduced glutathione; type: physicochemical; settings: 6 mM GSH in DMSO/Tris buffer solution (1:9)
Method: Moreover, concomitant band broadening in spectrum of complex 1 was observed after 24 h. No significant spectral shift and formation of new absorption band were observed. […] Comparing with the spectra of complex 1, the decrease in Soret band intensity of complex 2b is less significant. The intensities are only found to decrease in 2% and 19% after 2 h and 24 h, respectively. Also, there is no significant spectral shift and formation of new absorption band were observed (FIG. 8).

[6] = system: multi-drug resistant liver tumor cells (QGY-TR50); experiment: Murine xenograft tumor model; type: in vivo, mouse; settings: 10 mg/kg/day i.p. daily for 22 days, nude mice, vs control group
Method: The murine model for anti-tumor evaluation in vivo was the male BALB/c-nu/nu mouse originated from Charles River Laboratories, Inc. and the colony was maintained in the Laboratory Animal Unit, The University of Hong Kong. Mice were grafted in the left flank with QGY-TR50 cells subcutaneously. All of the experiments were carried out according to the guidelines of the Committee on the Use of Live Animals in Teaching and Research, The University of Hong Kong.
The anti-tumor effect of complex 1 was examined in the xenograft mice model. A complex 1 suspension was prepared by dissolving the complex in 1% EtOH and mixed with a solution containing 0.2% sodium carboxymethyl cellulose (Sigma) and 0.1% Tween 80 (Sigma) in PBS. A dose tolerance test was conducted to determine the appropriate dose ranges for complex 1. […] The dimensions of the tumors were measured twice weekly with calipers, and tumor volumes were estimated using two-dimensional measurements of length and width and calculated with the formula [l×(w)^2]×0.52 (l, length; w, width) according to described procedures (M. Guba, P. von Breitenbuch, M. Steinbauer, G. Koehl, S. Flegel, M. Hornung, C. J. Bruns, C. Zuelke, S. Farkas, M. Anthuber, K. W. Jauch, E. K. Geissler, Nat Med 2002, 8, 128-135). The weights of the mice were also recorded twice weekly throughout the course of treatment. […]

[7] = IC50 of cisplatin divided by IC50 of complex

IC50 ratio cisplatin/complex, HeLa [1, 7]: 30.2
IC50 ([1]; MTT, 37° C., 48 h, mean ± SD of three experiments): 470 ± 300 nM
IC50 ratio cisplatin/complex, SUNE1 [2, 7]: 4.8
IC50 ([2]; MTT, 37° C., 48 h, mean ± SD): 2450 nM
IC50 [3]: 780 ± 60 nM
decrease in Soret band intensity, reduced glutathione, 2 h ([5]; 2 h): 7%
decrease in Soret band intensity, reduced glutathione, 24 h ([5]; 24 h): 52%
Substance: [Yb2(OEP)2](μ-OH)2 [Complex 1]
IC50 [4]: 60 to 780 nM
inhibition of the tumor volume [6]: 40%
